Measurements reported in ChEMBL document CHEMBL1821675, “The selective P-TEFb inhibitor CAN508 targets angiogenesis” (Eur J Med Chem, 2011).
Calls of active or inactive are those of the source. No cut-off for these calls is given here.

Tests used:
[1] = biological target: Serine/threonine-protein kinase MARK1 (Homo sapiens) (UniProt Q9P0L2); test: Inhibition of MARK1 assessed as residual activity at 10 uM by radioactivity assay in presence of 20 uM ATP
DU-145 = test: Cytotoxicity against human DU145 cells; assay type: functional
HUVEC = test: Antiproliferative activity against HUVEC cells assessed as decrease in cell viability at >50 uM within 72 hrs by calcein AM staining-based fluorescence assay; conditions: human
[2] = Inhibition of PKA assessed as residual activity at 10 uM by radioactivity assay in presence of 20 uM ATP
KM12 = test: Cytotoxicity against human KM12 cells; assay type: functional
M14 = test: Cytotoxicity against human M14 cells; assay type: functional
RPMI-8226 = test: Cytotoxicity against human RPMI8226 cells; assay type: functional
[3] = biological target: Cyclin-dependent kinase 7 (Homo sapiens) (UniProt P50613); test: Inhibition of CDK7-catalyzed RNA polymerase 2 phosphorylation at Ser5 in human HMEC1 cells at 5 to 40 uM after 2 hrs by immunoblotting; assay type: cell-based
[4] = biological target: Serine/threonine-protein kinase TBK1 (Homo sapiens) (UniProt Q9UHD2); test: Inhibition of TBK1 assessed as residual activity at 10 uM by radioactivity assay in presence of 50 uM ATP
UACC-62 = test: Cytotoxicity against human UACC62 cells; assay type: functional
OVCAR-4 = test: Cytotoxicity against human OVCAR4 cells; assay type: functional
HCT-116 = test: Cytotoxicity against human HCT116 cells; assay type: functional
MCF7 = test: Cytotoxicity against human MCF7 cells; assay type: functional
[5] = Antiangiogenic activity in VEGF-stimulated HMEC1 assessed as reduction in median length of tube at 40 uM after 16 hrs by photographic analysis; assay type: functional, Homo sapiens, HMEC-1; set-up: scale not given: the % may be the effect or the level left
[6] = biological target: Rho-associated protein kinase 2 (Homo sapiens) (UniProt O75116); test: Inhibition of ROCK2 assessed as residual activity at 10 uM by radioactivity assay in presence of 20 uM ATP
[7] = biological target: Ribosomal protein S6 kinase beta-1 (Homo sapiens) (UniProt P23443); test: Inhibition of S6K1 assessed as residual activity at 10 uM by radioactivity assay in presence of 20 uM ATP
CAKI-1 = test: Cytotoxicity against human Caki1 cells; assay type: functional
[8] = biological target: Inhibitor of nuclear factor kappa-B kinase subunit beta (Homo sapiens) (UniProt O14920); test: Inhibition of IKK-beta assessed as residual activity at 10 uM by radioactivity assay in presence of 5 uM ATP
[9] = biological target: Insulin receptor-related protein (Homo sapiens) (UniProt P14616); test: Inhibition of IRR assessed as residual activity at 10 uM by radioactivity assay in presence of 5 uM ATP
HCC 2998 = test: Cytotoxicity against human HCC2998 cells; assay type: functional
[10] = biological target: Serine/threonine-protein kinase PAK 4 (Homo sapiens) (UniProt O96013); test: Inhibition of PAK4 assessed as residual activity at 10 uM by radioactivity assay in presence of 5 uM ATP
Chain of Serine/threonine-protein kinase PAK 4 (Homo sapiens) (O96013 whole entry, looked up): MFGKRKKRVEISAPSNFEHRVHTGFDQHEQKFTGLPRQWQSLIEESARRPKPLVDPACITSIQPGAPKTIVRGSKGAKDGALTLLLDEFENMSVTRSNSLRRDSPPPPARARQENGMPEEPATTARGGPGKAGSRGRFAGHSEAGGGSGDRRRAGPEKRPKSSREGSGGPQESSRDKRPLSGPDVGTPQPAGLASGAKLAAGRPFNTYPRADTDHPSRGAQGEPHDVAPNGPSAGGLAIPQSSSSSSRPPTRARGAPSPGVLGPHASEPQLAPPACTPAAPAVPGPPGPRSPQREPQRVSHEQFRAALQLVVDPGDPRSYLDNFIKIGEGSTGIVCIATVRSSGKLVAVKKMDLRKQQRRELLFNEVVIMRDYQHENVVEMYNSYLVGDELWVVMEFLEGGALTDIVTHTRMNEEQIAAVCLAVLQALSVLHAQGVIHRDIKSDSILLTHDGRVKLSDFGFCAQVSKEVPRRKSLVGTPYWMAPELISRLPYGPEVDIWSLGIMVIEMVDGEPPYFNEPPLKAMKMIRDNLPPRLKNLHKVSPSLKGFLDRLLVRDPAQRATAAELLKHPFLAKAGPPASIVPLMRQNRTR

[11] = biological target: Serine/threonine-protein kinase BRSK1 (Homo sapiens) (UniProt Q8TDC3); test: Inhibition of BRSK1 assessed as residual activity at 10 uM by radioactivity assay in presence of 20 uM ATP
[12] = biological target: Serine/threonine-protein kinase STK11 (Homo sapiens) (UniProt Q15831); test: Inhibition of LKB1 assessed as residual activity at 10 uM by radioactivity assay in presence of 20 uM ATP
[13] = Antiproliferative activity against HMEC1 cells assessed as decrease in cell viability at >50 uM within 72 hrs by calcein AM staining-based fluorescence assay; conditions: human, hmec-1, 72 h
NCI-H522 = test: Cytotoxicity against human NCI-H522 cells; assay type: functional
[14] = biological target: RAC-alpha serine/threonine-protein kinase (Homo sapiens) (UniProt P31749); test: Inhibition of PKBalpha assessed as residual activity at 10 uM by radioactivity assay in presence of 5 uM ATP
[15] = biological target: Inhibitor of nuclear factor kappa-B kinase subunit epsilon (Homo sapiens) (UniProt Q14164); test: Inhibition of IKK-epsilon assessed as residual activity at 10 uM by radioactivity assay in presence of 50 uM ATP
Chain of Inhibitor of nuclear factor kappa-B kinase subunit epsilon (Homo sapiens) (Q14164 whole entry): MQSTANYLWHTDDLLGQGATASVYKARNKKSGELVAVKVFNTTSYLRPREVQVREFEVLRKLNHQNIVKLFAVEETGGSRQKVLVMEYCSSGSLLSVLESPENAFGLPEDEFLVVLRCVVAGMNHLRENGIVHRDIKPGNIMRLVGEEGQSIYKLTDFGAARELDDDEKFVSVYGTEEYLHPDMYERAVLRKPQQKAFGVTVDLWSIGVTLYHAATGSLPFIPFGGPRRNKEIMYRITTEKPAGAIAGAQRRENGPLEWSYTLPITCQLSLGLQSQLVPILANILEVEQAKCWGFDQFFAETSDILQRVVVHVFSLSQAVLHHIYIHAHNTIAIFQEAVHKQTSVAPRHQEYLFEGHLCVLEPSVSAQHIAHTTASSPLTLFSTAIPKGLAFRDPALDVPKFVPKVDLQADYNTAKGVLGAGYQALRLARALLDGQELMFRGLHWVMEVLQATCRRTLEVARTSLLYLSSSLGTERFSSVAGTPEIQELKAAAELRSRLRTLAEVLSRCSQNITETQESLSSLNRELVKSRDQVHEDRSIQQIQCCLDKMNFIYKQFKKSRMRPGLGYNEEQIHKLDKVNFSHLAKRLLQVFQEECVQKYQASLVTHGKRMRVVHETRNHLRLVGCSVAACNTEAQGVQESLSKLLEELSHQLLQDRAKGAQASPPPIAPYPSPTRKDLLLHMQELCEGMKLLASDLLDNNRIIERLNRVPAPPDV

[16] = biological target: Insulin-like growth factor 1 receptor (Homo sapiens) (UniProt P08069); test: Inhibition of IGF-1R assessed as residual activity at 10 uM by radioactivity assay in presence of 5 uM ATP
SK-MEL-28 = test: Cytotoxicity against human SK-MEL-28 cells; assay type: functional
[17] = biological target: Serine/threonine-protein kinase N2 (Homo sapiens) (UniProt Q16513); test: Inhibition of PRK2 assessed as residual activity at 10 uM by radioactivity assay in presence of 5 uM ATP
Chain of Serine/threonine-protein kinase N2 (Homo sapiens) (Q16513 whole entry, looked up): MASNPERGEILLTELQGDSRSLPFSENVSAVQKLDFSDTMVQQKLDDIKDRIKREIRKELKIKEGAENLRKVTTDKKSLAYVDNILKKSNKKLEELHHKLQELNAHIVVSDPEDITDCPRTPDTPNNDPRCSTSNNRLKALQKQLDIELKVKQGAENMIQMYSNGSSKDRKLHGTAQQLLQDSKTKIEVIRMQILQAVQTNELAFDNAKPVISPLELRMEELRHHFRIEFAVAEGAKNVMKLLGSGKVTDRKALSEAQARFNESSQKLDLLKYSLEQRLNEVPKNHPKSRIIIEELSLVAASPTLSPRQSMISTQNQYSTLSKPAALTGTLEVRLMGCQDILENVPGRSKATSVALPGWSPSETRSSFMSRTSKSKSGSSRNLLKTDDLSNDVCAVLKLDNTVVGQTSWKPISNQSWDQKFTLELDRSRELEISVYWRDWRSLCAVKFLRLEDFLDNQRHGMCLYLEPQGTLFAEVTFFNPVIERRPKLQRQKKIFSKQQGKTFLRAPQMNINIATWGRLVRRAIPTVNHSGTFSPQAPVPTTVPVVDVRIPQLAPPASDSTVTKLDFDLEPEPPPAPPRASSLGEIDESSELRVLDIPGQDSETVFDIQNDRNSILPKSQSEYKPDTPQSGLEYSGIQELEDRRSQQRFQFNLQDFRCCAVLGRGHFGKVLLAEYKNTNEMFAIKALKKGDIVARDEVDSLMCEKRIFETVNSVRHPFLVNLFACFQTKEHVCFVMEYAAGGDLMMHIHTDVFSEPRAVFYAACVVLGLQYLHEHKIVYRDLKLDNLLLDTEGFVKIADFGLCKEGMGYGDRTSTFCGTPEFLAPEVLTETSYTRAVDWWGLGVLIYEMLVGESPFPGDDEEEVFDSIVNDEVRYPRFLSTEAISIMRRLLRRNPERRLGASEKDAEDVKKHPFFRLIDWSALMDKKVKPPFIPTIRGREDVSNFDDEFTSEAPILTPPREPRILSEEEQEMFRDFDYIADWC

K562 = test: Cytotoxicity against human K562 cells; assay type: functional
HMEC-1 = test: Inhibition of RNA synthesis in human HMEC1 cells assessed as decrease in [3H] Uridine incorporation after 2 hrs by scintillation counting; assay type: functional, cell-based
U-251 = test: Cytotoxicity against human U251 cells; assay type: functional
MDA-MB-231 = test: Decrease in VEGF expression in human MDA-MB-231 cells at >10 uM after 24 hrs by sandwich ELISA; assay type: functional, cell-based
[18] = biological target: Aurora kinase B (Homo sapiens) (UniProt Q96GD4); test: Inhibition of Aurora B assessed as residual activity at 10 uM by radioactivity assay in presence of 20 uM ATP
Chain of Aurora kinase B (Homo sapiens) (Q96GD4 whole entry): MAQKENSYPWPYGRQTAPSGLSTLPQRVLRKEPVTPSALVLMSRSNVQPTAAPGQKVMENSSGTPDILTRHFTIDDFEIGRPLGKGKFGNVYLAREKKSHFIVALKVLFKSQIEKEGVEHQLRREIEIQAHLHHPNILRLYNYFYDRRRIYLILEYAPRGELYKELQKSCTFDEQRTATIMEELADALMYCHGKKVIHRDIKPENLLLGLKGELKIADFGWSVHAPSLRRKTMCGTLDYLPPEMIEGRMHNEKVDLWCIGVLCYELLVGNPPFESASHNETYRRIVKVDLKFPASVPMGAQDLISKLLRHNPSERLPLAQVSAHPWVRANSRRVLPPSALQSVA

NCI-H23 = test: Cytotoxicity against human NCI-H23 cells; assay type: functional
SF-268 = test: Cytotoxicity against human SF268 cells; assay type: functional
[19] = biological target: Phosphorylase b kinase gamma catalytic chain, skeletal muscle/heart isoform (Homo sapiens) (UniProt Q16816); test: Inhibition of PHKG1 assessed as residual activity at 10 uM by radioactivity assay in presence of 50 uM ATP
[20] = biological target: MAP kinase-activated protein kinase 2 (Homo sapiens) (UniProt P49137); test: Inhibition of MAPKAP-K2 assessed as residual activity at 10 uM by radioactivity assay in presence of 20 uM ATP
Chain of MAP kinase-activated protein kinase 2 (Homo sapiens) (P49137 whole entry, looked up): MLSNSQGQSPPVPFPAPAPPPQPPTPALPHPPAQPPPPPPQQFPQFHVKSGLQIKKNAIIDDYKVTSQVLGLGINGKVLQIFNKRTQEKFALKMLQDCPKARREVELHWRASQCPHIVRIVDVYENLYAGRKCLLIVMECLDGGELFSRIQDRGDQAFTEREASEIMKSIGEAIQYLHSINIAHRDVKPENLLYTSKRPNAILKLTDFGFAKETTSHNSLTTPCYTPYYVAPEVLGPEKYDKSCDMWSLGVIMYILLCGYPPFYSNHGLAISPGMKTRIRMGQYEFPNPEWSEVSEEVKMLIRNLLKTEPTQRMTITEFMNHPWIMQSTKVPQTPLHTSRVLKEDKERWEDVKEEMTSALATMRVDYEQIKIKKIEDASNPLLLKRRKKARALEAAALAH

[21] = biological target: Protein kinase C alpha type (Homo sapiens) (UniProt P17252); test: Inhibition of PKCalpha assessed as residual activity at 10 uM by radioactivity assay in presence of 20 uM ATP
EKVX = test: Cytotoxicity against human EKVX cells; assay type: functional
[22] = biological target: Cyclin-dependent kinase 9 (Homo sapiens) (UniProt P50750); test: Inhibition of CDK9-catalyzed RNA polymerase 2 phosphorylation at Ser2 in human HMEC1 cells after 2 hrs by immunoblotting; assay type: cell-based
Chain of Cyclin-dependent kinase 9 (Homo sapiens) (P50750 whole entry): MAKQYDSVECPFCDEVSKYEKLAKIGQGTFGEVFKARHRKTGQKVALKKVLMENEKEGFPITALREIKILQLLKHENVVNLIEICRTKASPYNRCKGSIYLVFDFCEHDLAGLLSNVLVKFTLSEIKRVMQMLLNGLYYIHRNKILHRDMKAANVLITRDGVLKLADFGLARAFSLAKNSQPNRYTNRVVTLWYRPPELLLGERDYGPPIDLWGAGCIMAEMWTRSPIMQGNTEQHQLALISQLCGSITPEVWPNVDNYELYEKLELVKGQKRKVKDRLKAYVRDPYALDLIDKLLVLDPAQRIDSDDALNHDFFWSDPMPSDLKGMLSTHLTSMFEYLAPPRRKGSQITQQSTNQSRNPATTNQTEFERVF

[23] = biological target: Calcium/calmodulin-dependent protein kinase type 1 (Homo sapiens) (UniProt Q14012); test: Inhibition of CAMK1 assessed as residual activity at 10 uM by radioactivity assay in presence of 50 uM ATP

Chain of Serine/threonine-protein kinase MARK1 (Homo sapiens) (Q9P0L2 whole entry, looked up): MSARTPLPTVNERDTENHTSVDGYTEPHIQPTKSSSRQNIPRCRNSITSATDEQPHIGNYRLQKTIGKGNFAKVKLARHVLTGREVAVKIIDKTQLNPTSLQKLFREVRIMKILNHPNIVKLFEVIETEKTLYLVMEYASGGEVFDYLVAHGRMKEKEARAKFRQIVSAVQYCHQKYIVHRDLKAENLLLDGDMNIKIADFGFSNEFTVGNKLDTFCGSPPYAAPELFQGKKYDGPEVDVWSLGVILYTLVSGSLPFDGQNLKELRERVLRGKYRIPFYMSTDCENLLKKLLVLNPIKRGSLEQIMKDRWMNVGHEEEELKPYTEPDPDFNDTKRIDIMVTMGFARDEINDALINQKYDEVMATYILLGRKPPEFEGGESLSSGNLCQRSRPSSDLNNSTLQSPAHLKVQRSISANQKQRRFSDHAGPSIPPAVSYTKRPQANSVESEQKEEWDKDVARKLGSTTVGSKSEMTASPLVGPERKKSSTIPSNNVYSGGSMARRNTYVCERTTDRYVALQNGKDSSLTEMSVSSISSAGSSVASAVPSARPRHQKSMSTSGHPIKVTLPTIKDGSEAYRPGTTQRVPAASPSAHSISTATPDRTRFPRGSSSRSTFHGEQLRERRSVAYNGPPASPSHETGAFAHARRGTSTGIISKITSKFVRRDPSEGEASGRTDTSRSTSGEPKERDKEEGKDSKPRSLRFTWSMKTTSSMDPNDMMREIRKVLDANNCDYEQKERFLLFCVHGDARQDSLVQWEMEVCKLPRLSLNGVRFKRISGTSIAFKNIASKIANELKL

Nc1n[nH]c(N)c1/N=N/c1ccc(O)cc1
Activity [1]: 72%
GI50 (DU-145): 17 µM
Activity (HUVEC): Non-toxic
Activity [2]: 63%
GI50 (KM12): 17.1 µM
GI50 (M14): 15.9 µM
GI50 (RPMI-8226): 14.4 µM
inhibition [3]: Active
Activity [4]: 55%
GI50 (UACC-62): 11 µM
GI50 (OVCAR-4): 19 µM
GI50 (HCT-116): 18.9 µM
GI50 (MCF7): 23.5 µM
Activity [5]: 50%
Activity [6]: 51%
Activity [7]: 79%
GI50 (CAKI-1): 14.8 µM
Activity [8]: 31%
Activity [9]: 29%
GI50 (HCC 2998): 29.4 µM
Activity [10]: 79%
Activity [11]: 66%
Activity [12]: 37%
Activity [13]: Non-toxic
GI50 (NCI-H522): 24.3 µM
Activity [14]: 100%
Activity [15]: 45%
Activity [16]: 48%
GI50 (SK-MEL-28): 22.1 µM
Activity [17]: 30%
GI50 (K562): 9.2 µM
IC50 (HMEC-1): 20 µM
GI50 (U-251): 21.2 µM
Activity (MDA-MB-231): Active
Activity [18]: 46%
GI50 (NCI-H23): 19.1 µM
GI50 (SF-268): 20.6 µM
Activity [19]: 29%
Activity [20]: 26%
Activity [21]: 83%
GI50 (EKVX): 22 µM
inhibition [22]: Dose-dependent effect
Activity [23]: 81%
